Results as given in PMC9069370, “Integrated Design of a Membrane‐Lytic Peptide‐Based Intravenous Nanotherapeutic Suppresses Triple‐Negative Breast Cancer” (Advanced Science, 2022).
Peptide text beside a SMILES is read from it.

How the values were obtained:
HEK293T = experiment: cells; assay type: cell-based, human; settings: 72 h
[1] = ANTS/DPX liposome leakage assay; settings: for Peptide Concentration-induced 50 % ANTS/DPX leakage at pH 4.8 (L/P), 3POPC/1POPG Vesicle / Peptide Concentration-induced 50 % ANTS/DPX leakage at pH 4.8 (L/P), POPC Vesicle / Peptide Concentration-induced 50 % ANTS/DPX leakage at pH 7.4 (L/P), 3POPC/1POPG Vesicle / Peptide Concentration-induced 50 % ANTS/DPX leakage at pH 7.4 (L/P), POPC Vesicle: 0.5 mM vesicles, peptide 0-20 µM, 3 h incubation, lipid per peptide; for Peptide Concentration-induced 50 % ANTS/DPX leakage at pH 4.8 (L/P), 3POPC/1POPG Vesicle / Peptide Concentration-induced 50 % ANTS/DPX leakage at pH 4.8 (L/P), POPC Vesicle: HCl-adjusted PBS 1X pH 4.8; for Peptide Concentration-induced 50 % ANTS/DPX leakage at pH 7.4 (L/P), 3POPC/1POPG Vesicle / Peptide Concentration-induced 50 % ANTS/DPX leakage at pH 7.4 (L/P), POPC Vesicle: PBS 1X pH 7.4, high ratio = more potent
Method in brief: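 Extruded 0.1 µm POPC or POPC/POPG (3:1) vesicles were loaded with 5 mM ANTS and 12.5 mM DPX, gel-filtered, then used at 0.5 mM lipid with titrated peptide at pH 7.4 or pH 4.8 (acidified PBS). Leakage was read at ex 350/em 510 nm after 3 h against 10% Triton maximum, expressed as lipid/peptide ratio for 50% leakage.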

HMLER‐shEcad = experiment: cells; assay type: cell-based, human; settings: 72 h
Text: (§1) […], and MCF-10A cells were maintained in MEGM with supplements and growth factors bovine pituitary extract, hydrocortisone, human epidermal growth factor, insulin, and gentamicin/amphotericin-B.

HMLER = experiment: cells; assay type: cell-based, human; settings: 72 h
Text: as §1

MCF‐10A = experiment: cells; assay type: cell-based, human; settings: 72 h
Text: as §1

U2OS = assay type: cell-based, human; settings: 72 h
[2] = Tryptophan fluorescent binding assay; settings: tryptophan fluorescence; 50 µM peptide, lipid titrated 0-5000 µM; phosphate buffered saline 1X, pH 7.4; values as lipid per peptide
Method in brief: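 Tryptophan fluorescence was used to follow binding of peptide, fixed at 50 µM, to large unilamellar vesicles of POPC:POPG (3:1 ratio) titrated into phosphate buffered saline (1X, pH 7.4). After 1 h incubation, spectra were taken on a BioTek Cytation 5 reader with excitation at 280 nm and emission at 300 to 450 nm (9 nm slits), averaging three scans.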

Row | SMILES | IC50 (HMLER‐shEcad) | IC50 (HMLER) | IC50 (MCF‐10A) | IC50 (U2OS) | Lipid Concentration-induced 50% Peptide Binding (L/P), 3POPC/1POPG Vesicle [2] | Lipid Concentration-induced 50% Peptide Binding (L/P), POPC Vesicle [2] | IC50 (HEK293T) | Peptide Concentration-induced 50 % ANTS/DPX leakage at pH 4.8 (L/P), 3POPC/1POPG Vesicle [1] | Peptide Concentration-induced 50 % ANTS/DPX leakage at pH 4.8 (L/P), POPC Vesicle [1] | Peptide Concentration-induced 50 % ANTS/DPX leakage at pH 7.4 (L/P), 3POPC/1POPG Vesicle [1] | Peptide Concentration-induced 50 % ANTS/DPX leakage at pH 7.4 (L/P), POPC Vesicle [1] | change of ANTS/DPX dye leakage / liposome selectivity at pH 4.8 ([1]; pH = 4.8 compared with physiological pH, anionic versus neutral liposomes)
1 | CC(C)C[C@H](NC(=O)CN)C(=O)N[C@@H](CC(C)C)C(=O)N[C@@H](CCCCN)C(=O)N[C@@H](CC(C)C)C(=O)N[C@@H](CC(C)C)C(=O)N[C@@H](CCC(=O)O)C(=O)N[C@@H](CC(C)C)C(=O)N[C@@H](CC(C)C)C(=O)N[C@@H](CC(C)C)C(=O)N[C@@H](Cc1c[nH]cn1)C(=O)N[C@@H](C)C(=O)N[C@@H](C)C(=O)NCC(=O)N[C@@H](Cc1c[nH]c2ccccc12)C(N)=O [KEH] (H-GLLKLLELLLHAAGW-NH2) | 2.35 ± 0.07 µM | 3.3 ± 0.42 µM | 20 µM | 49.2 ± 5.3 µM | 0.50 L/P | 1.00 L/P | 5.65 ± 0.07 µM | 68 L/P | 188 L/P | 286 L/P | 995 L/P | 
2 | CC(C)C[C@H](NC(=O)CN)C(=O)N[C@@H](CC(C)C)C(=O)N[C@@H](CC(=O)O)C(=O)N[C@@H](CC(C)C)C(=O)N[C@@H](CC(C)C)C(=O)N[C@@H](CCC(=O)O)C(=O)N[C@@H](CC(C)C)C(=O)N[C@@H](CC(C)C)C(=O)N[C@@H](CC(C)C)C(=O)N[C@@H](Cc1c[nH]cn1)C(=O)N[C@@H](C)C(=O)N[C@@H](C)C(=O)NCC(=O)N[C@@H](Cc1c[nH]c2ccccc12)C(N)=O [DEH] (H-GLLDLLELLLHAAGW-NH2) | 3.6 ± 0.42 µM | 5.35 ± 1.91 µM | 20.2 ± 6.72 µM | 36.5 ± 3.92 µM | 1.50 L/P | 0.75 L/P | 10.5 ± 4.67 µM | 193 L/P | 63 L/P | 548 L/P | 620 L/P | 
3 | CC(C)C[C@H](NC(=O)CN)C(=O)N[C@@H](CC(C)C)C(=O)N[C@@H](CCC(=O)O)C(=O)N[C@@H](CC(C)C)C(=O)N[C@@H](CC(C)C)C(=O)N[C@@H](Cc1c[nH]cn1)C(=O)N[C@@H](CC(C)C)C(=O)N[C@@H](CC(C)C)C(=O)N[C@@H](CC(C)C)C(=O)N[C@@H](Cc1c[nH]cn1)C(=O)N[C@@H](C)C(=O)N[C@@H](C)C(=O)NCC(=O)N[C@@H](Cc1c[nH]c2ccccc12)C(N)=O [EHH] (H-GLLELLHLLLHAAGW-NH2) | 16.1 ± 3.18 µM | 25.4 ± 2.76 µM | 150 ± 71 µM | 117 ± 7 µM | 0.69 L/P | 0.94 L/P | 5.9 ± 0.14 µM | 80 L/P | 386 L/P | 981 L/P | 1043 L/P | increased selectivity for neutral bilayers
4 | CC(C)C[C@H](NC(=O)CN)C(=O)N[C@@H](CC(C)C)C(=O)N[C@@H](Cc1c[nH]cn1)C(=O)N[C@@H](CC(C)C)C(=O)N[C@@H](CC(C)C)C(=O)N[C@@H](CCCCN)C(=O)N[C@@H](CC(C)C)C(=O)N[C@@H](CC(C)C)C(=O)N[C@@H](CC(C)C)C(=O)N[C@@H](Cc1c[nH]cn1)C(=O)N[C@@H](C)C(=O)N[C@@H](C)C(=O)NCC(=O)N[C@@H](Cc1c[nH]c2ccccc12)C(N)=O [HKH] (H-GLLHLLKLLLHAAGW-NH2) | 3.1 ± 0.57 µM | 3.45 ± 0.21 µM | 6.1 µM | 18.9 ± 1.24 µM | 0.38 L/P | 0.18 L/P | 5.7 ± 0.99 µM | 47 L/P | 193 L/P | 274 L/P | 1077 L/P | 
5 | CC(C)C[C@H](NC(=O)CN)C(=O)N[C@@H](CC(C)C)C(=O)N[C@@H](CCCCN)C(=O)N[C@@H](CC(C)C)C(=O)N[C@@H](CC(C)C)C(=O)N[C@@H](CCCCN)C(=O)N[C@@H](CC(C)C)C(=O)N[C@@H](CC(C)C)C(=O)N[C@@H](CC(C)C)C(=O)N[C@@H](Cc1c[nH]cn1)C(=O)N[C@@H](C)C(=O)N[C@@H](C)C(=O)NCC(=O)N[C@@H](Cc1c[nH]c2ccccc12)C(N)=O [KKH] (H-GLLKLLKLLLHAAGW-NH2) | 2.2 ± 0.42 µM | 2.4 ± 0.85 µM | 1.75 ± 0.35 µM | 13.3 ± 0.99 µM | 0.48 L/P | 0.83 L/P | 4 ± 0.28 µM | 49 L/P | 164 L/P | 227 L/P | 2119 L/P | 
6 | CC(C)C[C@H](NC(=O)CN)C(=O)N[C@@H](CC(C)C)C(=O)N[C@@H](Cc1c[nH]cn1)C(=O)N[C@@H](CC(C)C)C(=O)N[C@@H](CC(C)C)C(=O)N[C@@H](Cc1c[nH]cn1)C(=O)N[C@@H](CC(C)C)C(=O)N[C@@H](CC(C)C)C(=O)N[C@@H](CC(C)C)C(=O)N[C@@H](Cc1c[nH]cn1)C(=O)N[C@@H](C)C(=O)N[C@@H](C)C(=O)NCC(=O)N[C@@H](Cc1c[nH]c2ccccc12)C(N)=O [HHH] (H-GLLHLLHLLLHAAGW-NH2) | 9.5 ± 0.99 µM | 21.1 ± 6.93 µM | 79 ± 11.3 µM | 185 ± 7 µM | 0.82 L/P | 0.46 L/P | 30.6 ± 4.81 µM | 50 L/P | 173 L/P | 469 L/P | 1133 L/P | 

Further lines, with some results ahead:

Row | IC50 (HMLER‐shEcad) | IC50 (HMLER) | IC50 (MCF‐10A) | IC50 (U2OS) | Lipid Concentration-induced 50% Peptide Binding (L/P), 3POPC/1POPG Vesicle [2] | Lipid Concentration-induced 50% Peptide Binding (L/P), POPC Vesicle [2] | SMILES | IC50 (HEK293T) | Peptide Concentration-induced 50 % ANTS/DPX leakage at pH 4.8 (L/P), 3POPC/1POPG Vesicle [1] | Peptide Concentration-induced 50 % ANTS/DPX leakage at pH 4.8 (L/P), POPC Vesicle [1] | Peptide Concentration-induced 50 % ANTS/DPX leakage at pH 7.4 (L/P), 3POPC/1POPG Vesicle [1] | Peptide Concentration-induced 50 % ANTS/DPX leakage at pH 7.4 (L/P), POPC Vesicle [1] | change of ANTS/DPX dye leakage / liposome selectivity at pH 4.8 ([1]; pH = 4.8 compared with physiological pH, anionic versus neutral liposomes)
7 | 2.18 ± 0.31 µM | 2.75 ± 0.07 µM | 7.9 ± 0.42 µM | 23.8 ± 0.81 µM | 0.19 L/P | 0.75 L/P | CC(C)C[C@H](NC(=O)CN)C(=O)N[C@@H](CC(C)C)C(=O)N[C@@H](CCC(=O)O)C(=O)N[C@@H](CC(C)C)C(=O)N[C@@H](CC(C)C)C(=O)N[C@@H](CCCCN)C(=O)N[C@@H](CC(C)C)C(=O)N[C@@H](CC(C)C)C(=O)N[C@@H](CC(C)C)C(=O)N[C@@H](Cc1c[nH]cn1)C(=O)N[C@@H](C)C(=O)N[C@@H](C)C(=O)NCC(=O)N[C@@H](Cc1c[nH]c2ccccc12)C(N)=O [EKH] (H-GLLELLKLLLHAAGW-NH2) | 6.65 ± 1.34 µM | 88 L/P | 55 L/P | 365 L/P | 608 L/P | 
8 | 1.35 ± 0.07 µM | 1.6 ± 0.14 µM | 1.55 ± 0.07 µM | 8.15 ± 0.49 µM | 0.50 L/P | 0.47 L/P | CC(C)C[C@H](NC(=O)CN)C(=O)N[C@@H](CC(C)C)C(=O)N[C@@H](CCCCN)C(=O)N[C@@H](CC(C)C)C(=O)N[C@@H](CC(C)C)C(=O)N[C@@H](CCC(=O)O)C(=O)N[C@@H](CC(C)C)C(=O)N[C@@H](CC(C)C)C(=O)N[C@@H](CC(C)C)C(=O)N[C@@H](CCCCN)C(=O)N[C@@H](C)C(=O)N[C@@H](C)C(=O)NCC(=O)N[C@@H](Cc1c[nH]c2ccccc12)C(N)=O [KEK] (H-GLLKLLELLLKAAGW-NH2) | 3.2 ± 0.14 µM | 126 L/P | 110 L/P | 438 L/P | 1173 L/P | 
9 | 1.7 µM | 2.05 ± 0.64 µM | 2.9 ± 0.57 µM | 12.8 ± 1.2 µM | 0.44 L/P | 0.48 L/P | CC(C)C[C@H](NC(=O)CN)C(=O)N[C@@H](CC(C)C)C(=O)N[C@@H](CCCCN)C(=O)N[C@@H](CC(C)C)C(=O)N[C@@H](CC(C)C)C(=O)N[C@@H](CCCCN)C(=O)N[C@@H](CC(C)C)C(=O)N[C@@H](CC(C)C)C(=O)N[C@@H](CC(C)C)C(=O)N[C@@H](CCC(=O)O)C(=O)N[C@@H](C)C(=O)N[C@@H](C)C(=O)NCC(=O)N[C@@H](Cc1c[nH]c2ccccc12)C(N)=O [KKE] (H-GLLKLLKLLLEAAGW-NH2) | 4.4 ± 0.14 µM | 131 L/P | 143 L/P | 346 L/P | 1133 L/P | 
